In brackets after ≈: the same amount, converted by molar mass. Where two headings read alike, the source gives them in different places.
Key:
water solubility = assay type: physicochemical
Description: A 15% w/v solution was prepared, seeded and stirred at room temperature.

Swiss Albino mice [1] = assay: Acute Intravenous Toxicity Studies in Mice; assay type: in vivo, mouse (Swiss Albino, Charles River)
Description: (§1) Toxicity evaluations in accordance with three different techniques were carried out on aqueous solutions of the compounds of Examples I, II, IV, V, VI, VIII, IX, X, XI and XII. The techniques utilized are described below.
1. Acute Intravenous Toxicity Studies in Mice
Except as noted below, Swiss Albino mice (Charles River) were dosed in the lateral tail vein with solutions of the above-noted iodinated compounds having an iodine concentration of 28.2% with a pH of 7.0-7.2. The solutions were injected at the rate of approximately 1 ml./min. In the case of the compound of Examples I, II and VI, supersaturated solutions having an iodine concentration of 10%, 28% and 28%, respectively, were employed. […] The LD50 values were calculated by the method of Litchfield and Wilcoxon (J. of Pharmac. and Exptl. Therap. 96:99-113, 1949).

Swiss Albino mice [2] = assay: Intracerebral Toxicity in Mice; assay type: in vivo, mouse (Swiss Albino, Charles River)
Description: as §1
2. Intracerebral Toxicity in Mice
Swiss Albino mice (Charles River) were used. Fixed volumes of aqueous solutions of the iodinated compounds were injected intracerebrally via a 27-gauge needle (1/4 inch in length) according to the method of Haley et al. (Br. J. of Pharmac. 12:12-15, 1957). Again in the case of the compounds of Examples I, II and VI, supersaturated solutions were employed. In the case of the compound of Examples VIII and IX, solutions having an iodine concentration of 35% and 42%, respectively, were employed and in the case of the compound of Example X, a solution having an iodine concentration of 40% was employed. The animals were observed immediately following injections and daily throughout a seven day observation period. The LD50 values were calculated by the method of Litchfield and Wilcoxon (J. of Pharmac. and Exptl. Therap. 96:99-113, 1949).

[3] = tested on: Sprague-Dawley (Carworth) rats; assay: Intracisternal Toxicity in Rats; assay type: in vivo, rat (Sprague-Dawley; conditions: two day observation
Description: as §1
3. Intracisternal Toxicity in Rats
Sprague-Dawley (Carworth) rats were used. The method used was a variation of the procedure outlined by Melartin et al. (Invest. Rad. 5:13-21, 1970). In the case of the compound of Examples VIII and IX, solutions having an iodine concentration of 35% and 40%, respectively, were employed and in the case of the compound of Example X, a solution having an iodine concentration of 40% was employed. After dosing, the animals were housed individually and observed for immediate reactions and periodically for a two day observation period. The LD50 values were calculated according to the method of Litchfield and Wilcoxon (J. of Pharmac. and Exptl. Therap. 96:99-115, 1949).

dogs [4] = assay: intrathecal myelographic studies in dogs; assay type: in vivo, dog
Description: (§2) The compound of Example I was tested as a bronchographic agent in a dog with good results. The compound of Example II was employed in intravenous pyelographic studies carried out in dogs. At a dosage of 250 mg. […] At a dosage of 350 mg. […] At a dosage of 350 mg. […] At a dosage of 190 mg. […] The compound of Examples VIII and IX was employed in intrathecal myelographic studies carried out in dogs. At dosages of 282 to 2400 mg. […] The compound of Examples VIII and IX was employed in intracisternal toxicity studies carried out in dogs using the cisterna magna as the route of administration. At a dosage of 1410 mg. […] The compound of Example X was employed in intravenous pyelographic studies carried out in rats. At a dosage of 500 mg. […] At a dosage of 70 mg. […] In a separate study, the compound of Examples XI and XII was administered to dogs by intraspinal administration at a dosage of 70 mg. I/kg.

dogs [5] = assay: intracisternal toxicity studies in dogs (cisterna magna route); assay type: in vivo, dog; conditions: 1410 mg. I/kg.
Description: as §2

dog [6] = assay: urinary tract visualization after injection into a dog; assay type: in vivo
Description: as §2

dog [7] = assay: tested as a bronchographic agent in a dog; assay type: in vivo
Description: as §2

dogs [8] = assay: intravenous pyelographic studies in dogs; assay type: in vivo, dog; conditions: 250 mg. I/kg.
Description: as §2

rats = assay: intravenous pyelographic studies in rats; assay type: in vivo, rat; conditions: 500 mg. I/kg.
Description: as §2

dogs [9] = assay: radiographs after intraspinal administration to dogs; assay type: in vivo, dog; conditions: 70 mg. I/kg.
Description: as §2

[10] = iodine concentration 28.2%, pH 7.0-7.2, approx. 1 ml./min., seven-day observation
[11] = water, read-out: water solubility
[12] = fixed volumes of aqueous solutions, seven day observation
[13] = supersaturated solution, iodine concentration 28%
[14] = supersaturated solution, seven day observation
[15] = water, initially, read-out: solubility, initial

In the case of `CNC(=O)c1c(I)c(NC(=O)[C@H](O)[C@@H](O)[C@H](O)[C@H](O)CO)c(I)c(N(CCO)C(C)=O)c1I` [Examples VIII and IX, 3-gluconamido-5-[N-(2-hydroxyethyl)acetamido]-2,4,6-triiodo-N-methylbenzamide], the solubility (water solubility; water, printed as slightly less than, read-out: aqueous solubility) is reported as < 1000 mg/mL, the “LD50 Value I.V. (Mice)” value (Swiss Albino mice [1]; Iodine Conc. 40%) is reported as 14,500 mg. I/kg. body wt and the “LD50 Value I.V. (Mice)” value (Swiss Albino mice [1]; [10]) is reported as > 13,000 mg. I/kg. body wt. The “LD50 Value Intracerebral (Mice)” value (Swiss Albino mice [2]; Iodine Conc. 35%) was > 2,679 mg. I/kg. body wt, the “LD50 Value Intracerebral (Mice)” value (Swiss Albino mice [2]; Iodine Conc. 42%) was 2,200 mg. I/kg. body wt and the “LD50 Value Intracisternal (Rats)” value ([3]; Iodine Conc. 35%) was > 505 mg. I/kg. body wt. For the same molecule, the “LD50 Value Intracisternal (Rats)” value ([3]; Iodine Conc. 40%) was 590 mg. I/kg. body wt, the “filling of subarachnoid space” value (dogs [4]; intrathecal, 282 to 2400 mg. I/kg., extent depending on volume injected and size of animal) was “good filling of the subarachnoid space from the cul-de-sac to the thoracic, cervical and cisterna magna” and the subarachnoid space filling (dogs [5]) was “partial filling of the cerebral subarachnoid space and good cervical and thoracic subarachnoid space filling”.
In the case of `CNC(=O)c1c(I)c(C(=O)N(C)C)c(I)c(N(C)C(=O)[C@@H](O)[C@H](O)[C@H](O)[C@@H](O)C=O)c1I` [Example V, 2,4,6-triiodo-N,N,N'-trimethyl-5-(N-methyl-D-galacturonamido)-isophthalamide], the solubility (water solubility; [11]) is reported as ≥ 1000 mg/mL, the “LD50 Value I.V. (Mice)” value (Swiss Albino mice [1]; [10]) is reported as 1,700 mg. I/kg. body wt and the “LD50 Value Intracerebral (Mice)” value (Swiss Albino mice [2]; [12]) is reported as 1,700 mg. I/kg. body wt. The “LD50 Value Intracisternal (Rats)” value [3] was 28 mg. I/kg. body wt and the “kidney and ureter visualization” value (dog [6]; 350 mg. I/kg., 5 minutes after injection) was “gave a kidney shadow with partial visualization of the ureters”.
`CNC(=O)c1c(I)c(CO)c(I)c(NC(=O)[C@H](O)[C@@H](O)[C@H](O)[C@H](O)CO)c1I` [Example VII, 3-D-gluconamido-5-hydroxymethyl-2,4,6-triiodo-N-methylbenzamide] gave a solubility (water solubility; [11]) of 18.6 mg/mL (≈ 25.3 mM).
With `CNC(=O)c1c(I)c(NC(C)=O)c(I)c(NC(=O)[C@H](O)[C@@H](O)[C@H](O)[C@H](O)CO)c1I` [Example VI, 3-acetamido-5-D-gluconamido-2,4,6-triiodo-N-methylbenzamide] the solubility (water solubility; [11]) was 86 mg/mL (≈ 113 mM), the “LD50 Value I.V. (Mice)” value (Swiss Albino mice [1]; [13]) was 11,000 mg. I/kg. body wt and the “LD50 Value Intracerebral (Mice)” value (Swiss Albino mice [2]; [14]) was ~ 2,000 mg. I/kg. body wt. The “LD50 Value Intracisternal (Rats)” value [3] was 180 mg. I/kg. body wt and the “kidney and ureter visualization” value (dog [6]; 190 mg. I/kg., one minute after injection) was “gave a kidney shadow with partial visualization of the ureters”.
For `CNC(=O)c1c(I)c(NC(=O)[C@H](O)[C@@H](O)[C@H](O)[C@H](O)CO)c(I)c(C(=O)NC)c1I` [Example I, 5-D-Gluconamido-2,4,6-triiodo-N,N'-dimethylisophthalamide], the solubility (water solubility; [11]) was 12 mg/mL (≈ 15.7 mM), the “LD50 Value I.V. (Mice)” value (Swiss Albino mice [1]; supersaturated solution, iodine concentration 10%) was > 10,000 mg. I/kg. body wt and the “LD50 Value Intracerebral (Mice)” value (Swiss Albino mice [2]; [14]) was > 750 mg. I/kg. body wt. The “LD50 Value Intracisternal (Rats)” value [3] was > 150 mg. I/kg. body wt and the “bronchographic agent test result” value (dog [7]) was “good results”.
`CNC(=O)c1c(I)c(NC(=O)C(=O)[C@@H](O)[C@H](O)[C@@H](O)CO)c(I)c(C(=O)N(C)C)c1I` [III, 2,4,6-Triiodo-5-(2-keto-L-gulonamido)-N,N,N'-trimethylisophthalamide] gave a solubility (water solubility; [11]) of 37.5 mg/mL (≈ 48.4 mM).
With `CNC(=O)c1c(I)c(NC(=O)[C@H](O)[C@@H](O)[C@H](O)[C@H](O)CO)c(I)c(N(C)C(C)=O)c1I` [Example IV, 3-D-Gluconamido-2,4,6-triiodo-N-methyl-5-(N-methylacetamido)-benzamide] the solubility (water solubility; [11]) was ≥ 1000 mg/mL, the “LD50 Value I.V. (Mice)” value (Swiss Albino mice [1]; [10]) was 6,400 mg. I/kg. body wt and the “LD50 Value Intracerebral (Mice)” value (Swiss Albino mice [2]; [12]) was 1,175 mg. I/kg. body wt. The “LD50 Value Intracisternal (Rats)” value [3] was 75 mg. I/kg. body wt and the urinary bladder visualization (dog [6]; 350 mg. I/kd. (so in the source), 40 minutes after injection) was “gave a shadow of the urinary bladder”.
With `CNC(=O)c1c(I)c(NC(=O)[C@H](O)[C@@H](O)[C@H](O)[C@H](O)CO)c(I)c(C(=O)N(C)C)c1I` [Example II, 5-D-Gluconamido-2,4,6-triiodo-N,N,N'-trimethylisophthalamide] the solubility (water solubility; [11]) was 284 mg/mL (≈ 365 mM), the “LD50 Value I.V. (Mice)” value (Swiss Albino mice [1]; [13]) was 8,085 mg. I/kg. body wt and the “LD50 Value Intracerebral (Mice)” value (Swiss Albino mice [2]; [14]) was 2,350 mg. I/kg. body wt. For the same molecule, the “LD50 Value Intracisternal (Rats)” value [3] was 100 mg. I/kg. body wt, the “ureters and urinary bladder visualization” value (dogs [8]; five minutes after injection) was “the ureters and urinary bladder were visible” and the kidney visualization (dogs [8]; one minute after injection) was “kidney shadows were observed”.
In the case of `CNC(=O)c1c(I)c(NC(=O)C(=O)[C@@H](O)[C@H](O)[C@@H](O)CO)c(I)c(N(CCO)C(C)=O)c1I` [Example X, 3-[N-(2-hydroxyethyl)acetamido]-2,4,6-triiodo-5-(2-keto-L-gulonamido)-N-methylbenzamide], the solubility on standing (water solubility; after standing several days, analytical sample) is reported as “a precipitate formed after standing several days”, the “solubility, initial” value (water solubility; initially) is reported as 100 % (w/v) and the solubility at 504 h (water solubility; water, after 21 days) is reported as 640 mg/mL (≈ 795 mM). For the same molecule, the solubility (water solubility; [15]) was 1000 mg/mL (≈ 1240 mM), the “LD50 Value I.V. (Mice)” value (Swiss Albino mice [1]; [10]) was ~ 10,500 mg. I/kg. body wt and the “LD50 Value Intracerebral (Mice)” value (Swiss Albino mice [2]; Iodine Conc. 40%) was 2,500 mg. I/kg. body wt. For the same molecule, the “LD50 Value Intracisternal (Rats)” value ([3]; Iodine Conc. 40%) was 405 mg. I/kg. body wt, the urinary bladder contrast (rats; 10 and 15 minutes after dosing) was “showed good contrast” and the “collecting pelvis of the right kidney filling” value (rats; 10 minutes) was “showed good filling”. For the same molecule, the “kidney and ureter visualization” value (rats; five minutes after injection) was “faint kidney and portions of ureters were observed”.
For `CNC(=O)c1c(I)c(NC(=O)[C@H](O)[C@@H](O)[C@H](O)[C@H](O)CO)c(I)c(NC(=O)[C@H](O)[C@@H](O)[C@H](O)[C@H](O)CO)c1I` [Examples XI and XII, 3,5-bis-D-gluconamido-2,4,6-triiodo-N-methylbenzamide], the turbidity of solution (water solubility; 15% w/v solution, seeded and stirred at room temperature) was “turbidity developed within two hours”, the solubility thermodynamic (water solubility; water, 15% w/v solution seeded, stirred at room temperature, filtered, filtrate aliquot evaporated to constant weight at 85° C.) was 120 mg/mL (≈ 133 mM) and the solubility at 24 h (water solubility; water, after 24 hr., read-out: aqueous solubility after 24 hr.) was < 150 mg/mL. The solubility (water solubility; [15]) was 1000 mg/mL (≈ 1110 mM), the “LD50 Value I.V. (Mice)” value (Swiss Albino mice [1]; [10]) was 20,500 mg. I/kg. body wt and the “LD50 Value Intracerebral (Mice)” value (Swiss Albino mice [2]; [12]) was 1,330 mg. I/kg. body wt. The “LD50 Value Intracisternal (Rats)” value [3] was > 560 mg. I/kg. body wt, the “radiographs, filling” value (dogs [4]; intrathecal injection, 70 mg. I/kg.) was “fair filling with some degree of scalloping” and the “radiographs, definition of lumbar and sacral spinal spaces” value (dogs [9]) was “the lumbar and sacral spinal spaces were well defined”.

Reference: patent publication US4314055A, “3,5-Disubstituted-2,4,6-triiodoanilides of polyhydroxy-monobasic acids” (Mallinckrodt, Inc., priority 1977, dated 1982)
